Legend:
[1] = test system: primary vaginal epithelial cells; experiment: Proliferation and viability, primary vaginal epithelial cells; format: cell-based, human; conditions: 10 or 50 μM, about 50% confluent primary vaginal epithelial cells, up to 120 h
Experimental: Results are presented as mean±SEM odu as a percentage of the DMSO control (n=2 independent experiments each conducted in duplicate for C and 1 experiment conducted in duplicate for D). Results in B-D were compared by ANOVA, *p<0.05, **p<0.01, ***p<0.001, ****p<0.0001).
Cell proliferation and viability were determined using the Cell Titer 96® Aqueous One Solution and optical density was determined using a SpectraMax® M5e Molecular Devices multidetection microplate reader. […] The cells were then fixed and stained for activated caspases (red) and SYTOX Green (for integrity of plasma membrane) by Image-iT™ LIVE red Poly Caspase Detection kit. Nuclei were stained with Hoechst. Images were acquired by laser confocal microscope ZeissLive/DuoScan equipped with oil immersion objectives 63×1.1 and captured in an optical slice of 0.37 μm with appropriate filters. Alternatively, immunoblots were prepared and probed with antibodies to cleaved PARP-1 or cleaved caspase 8.

MDCK-MDR1 cells = conditions: 5 μM
EGFR = EGFR (Homo sapiens, UniProt P00533); experiment: HotSpot in vitro kinase assay, EGFR; conditions: read-out: Compound IC50, EGFR; in vitro kinase activity
PLSCR1 = PLSCR1 phosphorylation after HSV-2 (immunoprecipitation/Western); format: cell-based, human; conditions: 10 μM, HaCat, 30 minutes
intracellular Ca2+ = experiment: Calcium kinetic measurements (Fura-2) after HSV exposure; format: cell-based, human; conditions: 10 μM, HaCat
Experimental: The cells were then washed, lysed and Western blots of cell lysates prepared and probed with a mAb to gD as a marker of cell-bound virus and anti-3-actin as a loading control. […] Representative responses are shown for the first 30 minutes (left) and the mean calcium released over the first 3 minutes and then the extended response in the first hour following viral exposure were calculated from 4 wells in 3 independent experiments, each containing 5×10^4 cells (right). Asterisks indicate statistically significant differences by ANOVA (*, p<0.05, ** p<0.01, *** p<0.001) relative to control cells (mock-infected, DMSO). […] Nuclei were stained blue with DAPI. Images are representative of 2 independent experiments. […] Nuclei are stained blue (DAPI). Images were obtained with ZeissLive/DuoScan (objective 100×1.4, bar=10 μm) are representative of 2 independent experiments; quantification is shown in FIG. 11.
The cells were then transferred to SpectraMax® MF^e temperature-regulated chamber at 37° C. […] An intracellular calibration was performed with each experiment by determining the fluorescence ratio (340:380) in the presence of Ca-free 10 mM K2EGTA buffer (Rmin) and 10 mM CaEGTA buffer containing 10 μM ionomycin (Rmax) (C-3008, Calcium Calibration Buffer Kit #1, Invitrogen Molecular Probes™).

Sequence of EGFR (P00533 25-1210): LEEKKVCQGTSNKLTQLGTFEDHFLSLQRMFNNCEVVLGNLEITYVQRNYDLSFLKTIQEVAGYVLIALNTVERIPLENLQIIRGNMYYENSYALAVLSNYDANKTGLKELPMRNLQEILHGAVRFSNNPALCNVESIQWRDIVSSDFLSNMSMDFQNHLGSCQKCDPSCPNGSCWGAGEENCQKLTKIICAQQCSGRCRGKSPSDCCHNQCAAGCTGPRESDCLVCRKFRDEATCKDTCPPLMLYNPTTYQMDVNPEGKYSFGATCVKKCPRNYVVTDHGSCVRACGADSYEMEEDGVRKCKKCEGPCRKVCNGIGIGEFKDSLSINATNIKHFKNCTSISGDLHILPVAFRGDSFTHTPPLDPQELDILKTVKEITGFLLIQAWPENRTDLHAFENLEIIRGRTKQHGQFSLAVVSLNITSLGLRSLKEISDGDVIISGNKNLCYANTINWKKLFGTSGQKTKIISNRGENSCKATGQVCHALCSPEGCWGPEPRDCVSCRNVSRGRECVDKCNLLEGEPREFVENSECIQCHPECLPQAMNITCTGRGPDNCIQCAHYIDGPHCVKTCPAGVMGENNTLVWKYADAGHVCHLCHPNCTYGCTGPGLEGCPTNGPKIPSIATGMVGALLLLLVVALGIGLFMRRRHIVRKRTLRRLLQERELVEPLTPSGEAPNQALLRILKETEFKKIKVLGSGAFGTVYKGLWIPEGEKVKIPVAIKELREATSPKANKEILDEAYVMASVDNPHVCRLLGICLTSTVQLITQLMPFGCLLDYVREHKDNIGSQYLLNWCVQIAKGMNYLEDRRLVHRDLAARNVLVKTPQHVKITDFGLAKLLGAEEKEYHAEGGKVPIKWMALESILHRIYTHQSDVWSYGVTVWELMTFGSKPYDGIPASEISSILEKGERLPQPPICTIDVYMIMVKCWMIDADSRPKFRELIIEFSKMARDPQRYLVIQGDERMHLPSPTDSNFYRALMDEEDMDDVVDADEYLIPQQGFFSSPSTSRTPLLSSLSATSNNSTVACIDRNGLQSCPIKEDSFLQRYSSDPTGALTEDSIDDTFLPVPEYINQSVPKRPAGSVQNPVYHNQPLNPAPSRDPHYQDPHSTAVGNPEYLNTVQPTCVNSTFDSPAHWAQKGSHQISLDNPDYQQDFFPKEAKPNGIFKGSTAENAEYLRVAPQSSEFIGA

## CO[C@@H]1[C@H](N(C)C(=O)CCC(=O)NCc2cn(CCCS(=O)(=O)[O-])nn2)C[C@H]2O[C@]1(C)n1c3ccccc3c3c4c(c5c6ccccc6n2c5c31)C(=O)NC4.[Na+] [CIMSS]
[1]
  cytotoxicity: little or no cytotoxicity
MDCK-MDR1 cells
  Recover %, MDCK Transport: 96%
EGFR
  IC50: 1610 nM
PLSCR1
  phosphorylation of PLSCR1 after HSV-2: not
Intracellular Ca2+
  extended Ca2+ release (first hour pi): significant reduction
  initial Ca2+ transient (first three minutes following HSV exposure): did not block
